Assay results published in patent US8691222B2, “NLRR-1 antagonists and uses thereof” (Genentech, Inc., priority 2007, dated 2014).

Tests used:
[1] = test system: lung tumor cell lines which endogenously express NLRR-1; conditions: several lung tumor cell lines classified as resistant to erlotinib; cited from earlier work
[2] = test system: NCI-H2009 cells; conditions: NCI-H2009, characterized as sensitive to erlotinib; cited from earlier work
[3] = test system: cell lines that endogenously expressed NLRR-1; test: Apoptosis assay with starvation (caspase 3/7) after siRNA knockdown; assay type: cell-based, human; conditions: vs non-targeting control RNA
Experimental: The NLRR-1 siRNA duplex was designed and synthesized by Dharmacon (Lafayette, Colo.). The sense sequence is […] (SEQ ID NO: 11) and the antisense sequence is 5′-[…] (SEQ ID NO: 12). NCI-H2009, NCI-H647, NCI-H226, and SK-MES-1 cells were seeded at 2830/cm^2 and NCI-H520 and NCI-H1781 cells were seeded at 5660/cm^2. 100 nM of siRNA was transfected with DharmaFECT 4 for 6 to 8 hours before the transfectant was replaced with fresh media. A non-targeting siRNA sequence (Dharmacon) was used as a negative control. RT-PCR was performed on RNA extracted from 60 mm plates using RNeasy (Qiagen, Valencia, Calif.) per manufacturer's instructions. […] Cell growth was assessed after 4 days by Cell Titer Glo (Promega, Madison, Wis.) per manufacturer's instructions. […] For apoptosis assay with starvation, cells were starved in Optimem I. For both assays, cell viability was measured with Cell Titer Glo (Promega, Madison, Wis.) and apoptosis was measured with Caspase-Glo 3/7 (Promega) after 2 days. […]
EGFR pathway activation in tumor cells has consequences for many important cellular processes, including cell survival. […] NLRR-1 was knocked down using siRNA, cells were subjected to starvation to promote apoptosis, and apoptosis was measured by caspase 3/7 activity and normalized for viable cells (FIG. 6C).

[4] = test system: NCI-H2009 cells; test: Apoptosis and erlotinib synergy assay, NCI-H2009; assay type: cell-based, human; conditions: NLRR-1 siRNA knockdown plus increasing concentrations of erlotinib; NCI-H2009, erlotinib-sensitive; FIG. 8E
Experimental: (§1) The NLRR-1 siRNA duplex was designed and synthesized by Dharmacon (Lafayette, Colo.). The sense sequence is […] (SEQ ID NO: 11) and the antisense sequence is 5′-[…] (SEQ ID NO: 12). NCI-H2009, NCI-H647, NCI-H226, and SK-MES-1 cells were seeded at 2830/cm^2 and NCI-H520 and NCI-H1781 cells were seeded at 5660/cm^2. 100 nM of siRNA was transfected with DharmaFECT 4 for 6 to 8 hours before the transfectant was replaced with fresh media. A non-targeting siRNA sequence (Dharmacon) was used as a negative control. RT-PCR was performed on RNA extracted from 60 mm plates using RNeasy (Qiagen, Valencia, Calif.) per manufacturer's instructions. EGFR flow cytometry and immunoblot: After siRNA transfection for 24 hours, cells were harvested and stained with α-EGFR antibody conjugated to PE (BD Pharmingen) and propidium iodide for flow cytometry analysis. 10,000 events were collected and cells were gated on FSC, SSC, and PI. For immunoblot analysis, lysates were immunoblotted with α-EGFR (MBL) or α-βtubulin (Santa Cruz Biotechnology). […] Cell growth was assessed after 4 days by Cell Titer Glo (Promega, Madison, Wis.) per manufacturer's instructions. […] For apoptosis assay with starvation, cells were starved in Optimem I. For both assays, cell viability was measured with Cell Titer Glo (Promega, Madison, Wis.) and apoptosis was measured with Caspase-Glo 3/7 (Promega) after 2 days. […]

[5] = test system: EGFR in NCI-H2009, NCI-H226, NCI-H647 cells; test: EGFR flow cytometry and immunoblot after NLRR-1 siRNA knockdown; assay type: cell-based, human
Experimental: as §1

[6] = test system: SK-MES cells (NLRR-1-negative); test: Apoptosis and erlotinib synergy assay, SK-MES; assay type: cell-based, human; conditions: NLRR-1 siRNA knockdown plus increasing concentrations of erlotinib, erlotinib-sensitive, FIG. 8F
Experimental: as §1

[7] = test system: NCI-H520 cells; test: Apoptosis and erlotinib synergy assay, NCI-H520; assay type: cell-based, human; conditions: NLRR-1 siRNA knockdown plus increasing concentrations of erlotinib; NCI-H520, resistant; FIG. 8D
Experimental: as §1

[8] = test system: NCI-H647 cells; test: Apoptosis and erlotinib synergy assay, NCI-H647; assay type: cell-based, human; conditions: NLRR-1 siRNA knockdown plus increasing concentrations of erlotinib; NCI-H647, erlotinib-resistant; FIG. 8A
Experimental: as §1

[9] = test system: NCI-H1781 cells; test: Apoptosis and erlotinib synergy assay, NCI-H1781; assay type: cell-based, human; conditions: NLRR-1 siRNA knockdown plus increasing concentrations of erlotinib; NCI-H1781, resistant; FIG. 8B
Experimental: as §1

[10] = test system: SK-MES1 lung carcinoma cell line; test: Proliferation assay (Cell Titer Glo) after siRNA knockdown, SK-MES1; assay type: cell-based, human; conditions: 100 nM siRNA; 4 days; SK-MES1, does not express NLRR-1
Experimental: as §1

[11] = test system: NCI-H226 cells; test: Apoptosis and erlotinib synergy assay, NCI-H226; assay type: cell-based, human; conditions: NLRR-1 siRNA knockdown plus increasing concentrations of erlotinib; NCI-H226, resistant; FIG. 8C
Experimental: as §1

Compound: C#Cc1cccc(Nc2ncnc3cc(OCCOC)c(OCCOC)cc23)c1 [erlotinib]
- IC50 [1]: ≥ 8 µM
- IC50 [2]: ≤ 2 µM

Compound: NLRR-1 siRNA: siRNA duplex by Dharmacon; sense GCCAGAACCUGAAAUUUACUU (SEQ ID NO: 11), antisense 5′-PGUAAAUUUCAGGUUCUGGCUU (SEQ ID NO: 12) (5' phosphate on antisense, further chemistry not given here)
- apoptosis (caspase 3/7 activity normalized for viable cells) [3]: increase in apoptosis
- apoptosis (caspase 3/7 activity) in presence of erlotinib [4]: did not show any increased apoptosis
- total EGFR protein level ([5]; NLRR-1 depleted vs control-depleted cells, immunoblot): unchanged
- surface EGFR protein level ([5]; siRNA knockdown 24 hours, NCI-H2009, NCI-H226, NCI-H647, vs non-targeting siRNA, flow cytometry): increase in surface EGFR
- apoptosis (caspase 3/7 activity) in presence of erlotinib [6]: did not show any increase in apoptosis
- apoptosis (caspase 3/7 activity) in presence of erlotinib [7]: possibly also, to a lesser degree
- apoptosis (caspase 3/7 activity) in presence of erlotinib [8]: significant increase in sensitivity
- apoptosis (caspase 3/7 activity) in presence of erlotinib [9]: synergy
- proliferation (ATP-based cell viability) [10]: no significant defect in proliferation
- apoptosis (caspase 3/7 activity) in presence of erlotinib [11]: synergy
